In US9493466B2, “Treatment of cancer with TOR kinase inhibitors” (Signal Pharmaceuticals, LLC, priority 2011, dated 2016):

Columns and labels:
NET = assay: Phase 1/2 study Part B: tumor response, NET; format: in vivo, human
Source text: In Part B, subjects may start Compound 1 at the MTD and/or a lower dose level based on safety, PK and PD data from Part A. Approximately 150 subjects will be treated and evaluated for safety and preliminary antitumor activity after every two cycles of therapy. Tumor types include non-small cell lung cancer (NSCLC), glioblastoma multiforme (GBM), hepatocellular carcinoma (HCC), gastrointestinal neuroendocrine tumor of non-pancreatic origin (NET), diffuse large B-cell lymphoma (DLBCL), multiple myeloma (MM), and hormone receptor positive breast cancer (HRPBC). Up to 20 subjects will be enrolled in each tumor type.
Subjects will be evaluated for efficacy every 2 cycles through cycle 6 and every 3 cycles thereafter. The primary efficacy variable is response. Tumor assessments, including imaging (CT, MRI and/or PET) of the chest and abdomen and other sites as appropriate, will be performed during Screening. Subjects with brain lesions will also have brain scans at Screening and during follow-up tumor assessments. After Screening, tumor assessments (for all tumors except multiple myeloma) will be performed on completion of Cycles 2, 4 and 6 (i.e., on Cycles 3, 5 and 7/Day 1±7 days) and then every 3 months thereafter (e.g., Cycle 10 and 13/Day 1±7 days). Tumor assessment (for multiple myeloma and only NHL/DLBCL with known or suspected marrow involvement) (bone marrow aspiration and biopsy, with PD biomarker analysis, cytogenetic analysis if abnormally present at Screening) will be performed on completion of Cycles 4, 8, 12 and 16 only (i.e., on Cycles 5, 9, 13 and 17/Day 1±7 days). Cytogenetics need not be repeated if normal at Screening. Tumor response will be based on Response Evaluation Criteria in Solid Tumors (RECIST 1.1), International Workshop Criteria (IWC) for NHL/DLBCL or International Uniform Response Criteria (IURC) for Multiple Myeloma, and RANO for GBM, using the post resection MRI scan as the baseline. Given the difficulty in assessing tumor response following salvage surgery, the primary efficacy endpoint for GBM will be the proportion of subjects progression-free at 6 months from Day 1 relative to efficacy evaluable subjects in the GBM type. Subjects will be evaluated for tumor response on completion of Cycle 2, 4, 6, and so on. A descriptive analysis of evidence of anti-tumor activity will be provided based on clinical and radiographic assessments by the investigator, which includes assessment of target lesion, non-target lesion, new lesion and overall response.
For Part B, efficacy variables to be analyzed include tumor response at the end of treatment, the proportion of subject alive and progression-free, and duration of response. […]

U87MG tumors = assay: Apoptosis TUNEL assay in U87MG tumors; format: in vivo, mice; conditions: 5 mg/kg BID oral for 4 days
Method: Mechanism of action studies. To determine the mechanism of action of Compound 1, mice bearing U87MG tumors of approximately 500 mm^3 were dosed orally with vehicle or Compound 1 at 5 mg/kg BID for 4 days. The positive control, rapamycin, was dosed at 4 mg/kg Q3D for 4 days. Two hours after the 7th dose of Compound 1 on day 4, animals were euthanized and tumors were dissected out and snap frozen in liquid nitrogen. In the rapamycin-treated group tumors were collected at 2 hour after the 2nd dose on day 4. The tumors were processed for immunohistochemistry (IHC) or TUNEL.
Apoptosis TUNEL Assay. To detect apoptotic cells, fluorescence in situ cell death detection kit (Roche Biosciences) was used. […]
Quantitation of Immunohistochemistry. The tissues sections processed for apoptosis or immunostained for proliferating cells (Ki67) or blood vessels were quantitated using Metamorph software. Using 20× objective, 5 different fields from each section, 2-4 sections from each tumor, and 3-4 tumors from each treatment group or control were used for quantitation. The area of interest was expressed as the percent threshold area of the total area.
Apoptotic Activity of Compound 1. […] FITC-labeled nucleotides (representing the cells with DNA strand breaks, a hallmark of apoptosis) can be detected using a microscope equipped with a fluorescence attachment.

CO[C@H]1CC[C@H](N2C(=O)CNc3ncc(-c4ccc(C(C)(C)O)nc4)nc32)CC1 [Compound 1, 7-(6-(2-hydroxypropan-2-yl)pyridin-3-yl)-1-((1r,4r)-4-methoxycyclohexyl)-3,4-dihydropyrazino-[2,3-b]pyrazin-2(1H)-one]
tumor metabolic activity by PET imaging (NET; majority of subjects): reductions in tumor metabolic activity | patients meeting Stable Disease (RECIST 1.1) (NET; patients with sufficient follow up): Six patients | endocrine hormone markers (chromogranin, gastrin, serotonin, glucagon) (NET; some patients): reductions | carcinoid syndrome-related symptoms (NET; some patients with refractory baseline symptoms): improvements | TUNEL-positive cells compared with vehicle control (U87MG tumors): more than a four-fold increase
